Data: PubChem BioAssay AID1996
≈ marks a conversion by molar mass, not a printed value.

Conditions: buffer; pH 7.4; 200.0 µM

SMILES | solubility kinetic [µg/mL]
CC(C(=O)Nc1ccccc1)N1C(=O)c2ccccc2C1=O (stereo unspecified) | > 44.1
Cc1cccc(NC(=O)Nc2ccc(Cl)cc2)n1 | < 0.2
Cc1cccc(C)c1NC(=S)N(Cc1cccs1)C1CCCC1 | 0.6 (≈ 1.74 µM)
COC(CNc1ncnc2sc(-c3ccccc3)cc12)OC | 35.9 (≈ 114 µM)
O=C(CSc1ccc2ccccc2n1)NC1CC1 | 38 (≈ 147 µM)
Cc1cccnc1NC(=O)C(C)N1C(=O)c2ccccc2C1=O (stereo unspecified) | > 46.4
CCOC(=O)c1c(C)[nH]c(C)c1S(=O)(=O)N1CCCCC1 | > 47.2
CCOc1ccc2[nH]c3c(N4CCC5(CC4)OCCO5)ncnc3c2c1 | 4 (≈ 11.3 µM)
O=S(=O)(NCCc1c[nH]c2ccccc12)c1ccccc1 | > 45.1
O=S(=O)(NCC1CC1)c1ccc(F)c(Cl)c1 | > 39.6
COc1ccc(NC2=NCCCS2)cc1OC | > 37.8
Cc1ccc(OCC(=O)Nc2ccc(Cl)cc2)c([N+](=O)[O-])n1 | 8.7 (≈ 27 µM)
CCOc1ccc(C(=O)OCC(=O)N2CCCC2)cc1OCC | 38.3 (≈ 119 µM)
O=C(O)c1cc(Cl)nc2ccccc12 | > 31.1
CN(C)C(Cc1ccccc1)C(=O)c1c[nH]c2ccccc12.Cl (stereo unspecified) | > 49.3
CC1CCCN(C(=O)c2cc3ccccc3cc2O)C1 (stereo unspecified) | 38.5 (≈ 143 µM)
COCC(C)n1c(SCC(=O)Nc2c(C)n(C)n(-c3ccccc3)c2=O)nc2ccccc2c1=O (stereo unspecified) | > 74
CN(CC(=O)Nc1ccc(F)cc1[N+](=O)[O-])C1CCS(=O)(=O)C1 (stereo unspecified) | > 51.8
CC1CCN(C(=O)COc2cccc3c2CCN(Cc2ccccc2)C3=O)CC1 | 55.9 (≈ 142 µM)
COC(=O)C1CCC(=S)N1C(=O)c1ccccc1 (stereo unspecified) | > 39.5
CC(O)CNCCOc1cccc(Oc2ccccc2)c1.O=C(O)C(=O)O (stereo unspecified) | 45.6
O=C(CSc1nc2ccccc2[nH]1)NCc1ccccc1 | 33.7 (≈ 113 µM)
Cl.Clc1ccccc1CN1CCNCC1 | > 37.1
CC(C)(C)C1CCC(C(=O)Nc2nccs2)CC1 (stereo unspecified) | 0.3 (≈ 1.13 µM)
Cc1cc(Oc2ccc(OCC(N)=O)nn2)nc(Cl)n1 | > 44.4

SMILES | solubility kinetic [µg/mL]
COc1cccc(-c2cc(C(=O)NC3CCCC3)c3ccccc3n2)c1 | 1.3 (≈ 3.75 µM)
Cc1noc(C)c1C(=O)Nc1ccc2ccccc2c1 | 11.2 (≈ 42.1 µM)
O=C(O)c1nccnc1C(=O)Nc1ccc(Cl)cn1 | 41.5 (≈ 149 µM)
O=C(O)c1cccc(Nc2ccc([N+](=O)[O-])c3nonc23)c1 | > 45
CC(=O)N1CCc2ccc(S(=O)(=O)N3CCc4ccccc43)cc21 | 0.5 (≈ 1.46 µM)
Cc1cccc(NCc2ccc(Br)cc2)n1 | 12 (≈ 43.3 µM)
CS(=O)(=O)O.OC(CCN1CCCCC1)(c1ccccc1)c1ccccc1 | > 58.7
COc1cc(C(=O)Nc2cccnc2)cc(OC)c1OC | > 43.2
CC(=O)Nc1ccc(S(=O)(=O)N(C)CC(=O)NC2CCCCCCC2)cc1 | > 59.3
COc1ccc(CNC(=O)CSc2cccc3cccnc23)cc1 | > 50.8
COc1ccc(/C(C)=N\O)cc1OC | 16.9 (≈ 86.6 µM)
O=C(CC(=O)Nc1ccccc1F)Nc1ccccc1F | > 43.5
O=C(NC1CC1)C1CC(=O)N(c2cccc(Cl)c2Cl)C1 (stereo unspecified) | > 47
Cc1ccc(SC(C)C(=O)O/N=C(\N)c2ccncc2)cc1 (stereo unspecified) | > 47.3
COc1ccc(C2(c3ccc(OC)cc3)NC(=O)NC2=O)cc1 | > 46.8
O=[N+]([O-])c1cc(/C=N/N2CCOCC2)cs1 | > 36.2
CCOc1ccc(S(=O)(=O)N(C)CC(=O)NCc2ccccn2)cc1 | 50.2 (≈ 138 µM)
O=C(NN1CCOCC1)c1cccc(Br)c1 | > 42.8
COc1ccc(NC(=O)c2cc(-c3ccc(C)cc3)on2)cc1 | < 0.3
Cc1ccc(NC(=O)c2cc3ccccc3oc2=N)cc1 | < 0.3
COc1cc2c(cc1OC)CN(C(=O)c1ccco1)CC2 | > 43.1
O=C(/C=C/c1ccccc1)Nc1ccc(NC(=O)c2cccs2)cc1 | < 0.4
N#CC(C#N)=Cc1cnc(N2CCN(c3ccccc3)CC2)s1 | < 0.1
CCOc1cccc(C(=O)N2CCCN(C)CC2)c1 | 35.6 (≈ 136 µM)
O=C(COC(=O)/C=C/c1cccc(C(F)(F)F)c1)NC(=O)NCc1ccco1 | 4.5 (≈ 11.4 µM)

SMILES | solubility kinetic [µg/mL]
NS(=O)(=O)c1ccc(NC(=S)N2CCc3ccccc32)cc1 | 2.1 (≈ 6.3 µM)
CC1(C)SC[C@H](C(=O)Nc2cccc(Cl)c2)N1C=O | > 44.8
CC(=O)Cn1ncc(N2CCOCC2)c(Br)c1=O | > 47.4
COC(=O)c1ccc(OCC(=O)NCCC2=CCCCC2)c(OC)c1 | > 52.1
CC1(C)NC(=O)N(CCCCOc2ccc(Cl)cc2C=O)C1=O | 47.6 (≈ 140 µM)
CCN1CCc2nc(N)sc2C1 | 25.8 (≈ 141 µM)
O=[N+]([O-])c1ccc(Cl)c([N+](=O)[O-])c1 | 13.8 (≈ 68.1 µM)
CCC(C)c1ccc(C(CC)NC(=O)C2CCCO2)cc1 (stereo unspecified) | 34.5 (≈ 119 µM)
Cc1[nH]c2ccccc2c1C(=O)COC(=O)c1ccccc1O | 4.6 (≈ 14.9 µM)
Cc1nc(=O)c(-c2ccccc2)c(C)n1-c1ccccc1Cl | > 46.6
CCC(=O)NC1OC(CO)C(O)C(O)C1O (stereo unspecified) | > 35.3
N#Cc1ccccc1NC(=O)COC(=O)/C=C/c1ccc(S(=O)(=O)N2CCOCC2)cc1 | 5.7 (≈ 12.5 µM)
COc1ccc(CNc2ccc(C)c(C)c2)cc1 | 1.5 (≈ 6.22 µM)
CC(OCC(O)CN1CCCCC1CCO)c1ccc(Cl)cc1 (stereo unspecified) | 42.2 (≈ 123 µM)
CC(NCCC(Cc1ccccc1)c1ccco1)c1ccccc1 (stereo unspecified) | > 47.9
CCN(CC)c1ccc(C(=O)OCc2c(C)noc2C)cc1 | 2.8 (≈ 9.26 µM)
O=C(Nc1ccc(F)cc1F)N1CCCCCC1 | > 38.1
COc1ccc(NC(=O)CSCc2ccc(C#N)cc2)c(OC)c1 | > 51.4
Cc1ccc(NC(=O)c2cccnc2)cc1S(=O)(=O)N(C)C | > 47.9
CCOc1ccccc1N=Cc1c(O)n(C)c(=O)n(C)c1=O | 1.1 (≈ 3.63 µM)
COCc1nnc(NC(=O)C2CC(=O)N(C3CCCCC3)C2)s1 (stereo unspecified) | > 50.8
Cc1ccc(SCC(=O)Nc2ccc(N3CCOCC3)cc2)cc1C | 12.3 (≈ 34.5 µM)
CC(NS(=O)(=O)/C=C/c1ccccc1)C(=O)O (stereo unspecified) | 34.2 (≈ 134 µM)
CC1=C(C(=O)OCC2CCCCC2)C(c2ccc(O)cc2)NC(=O)N1 (stereo unspecified) | 3.4 (≈ 9.87 µM)
CCOc1ccccc1NC(=S)NCCc1ccc(F)cc1 | 25.4 (≈ 79.8 µM)

SMILES | solubility kinetic [µg/mL]
Cc1cc(=O)[nH]c(SCc2ccc(Cl)cc2)n1 | 13.2 (≈ 49.5 µM)
COC(=O)c1ccc(N2CCN(C)CC2)c(NC(=O)c2cccnc2)c1 | 51.4 (≈ 145 µM)
O=C(Nc1cccnc1)OC1CCCC1 | 29.5 (≈ 143 µM)
Clc1ncccc1OCc1ccccc1 | 14.6 (≈ 66.5 µM)
COc1ccccc1/C=C/C1NC(=O)NC(C)=C1C(=O)OC(C)C (stereo unspecified) | 0.4 (≈ 1.21 µM)
Cc1ccc(-c2csc(NC(=O)c3c(C)noc3C)n2)s1 | 15.8 (≈ 49.5 µM)
CCOc1ccc2[nH]c(C)c(CN3CCCCCC3)c(=O)c2c1 | > 47.2
CC(N)C(=O)OC(C)(C)Cc1ccc(Cl)cc1.Cl (stereo unspecified) | > 43.8
Cc1ccc(C)c(NC(=S)NCCc2cnc[nH]2)c1 | 36.8 (≈ 134 µM)
Cc1cc(NC(=O)COC(=O)c2ccc(C)c(C)c2)no1 | 3.7 (≈ 12.8 µM)
O=C1OCc2ccc(NC(=O)c3sccc3Cl)cc21 | < 0.6
CC1(c2ccc3ccccc3c2)NC(=O)N(CC(=O)O)C1=O (stereo unspecified) | > 44.7
COc1ccc(N2CC(C(=O)N3CCN(C)CC3)CC2=O)cc1 (stereo unspecified) | 43.8 (≈ 138 µM)
Cc1nnc(SC(C)C(=O)Nc2ccc(Cl)cc2Cl)[nH]c1=O (stereo unspecified) | > 53.9
O=C1/C(=C/c2cccc([N+](=O)[O-])c2)CSc2ccc(Cl)cc21 | < 0.7
O=C(CS(=O)(=O)c1ccccc1)NCc1ccc(Cl)cc1 | 2.7 (≈ 8.34 µM)
CC(C)NC(=S)N1CCCN(c2ncccc2[N+](=O)[O-])CC1 | > 48.5
CC(C)C(C)N(Cc1cccc(C(=O)O)c1)C(=O)c1ccc2ccccc2n1 (stereo unspecified) | 31.7 (≈ 84.2 µM)
COc1ccc(CC(=O)Nc2ccc(N(C)C)c3ccccc23)cc1 | 7.6 (≈ 22.7 µM)
O=C(CN1CCN(c2ccccc2)CC1)Nc1scc2c1c(=O)oc1ccccc12 | < 0.3
COc1ccc2[nH]c(C(=O)NCCCn3ccnc3)cc2c1 | > 44.8
O=C(Nc1ccsc1C(=O)O)c1ccccc1 | > 37.1
CC1CC2c3cccc(C(=O)O)c3C(=O)N2c2ccc(Cl)cc21 (stereo unspecified) | > 49.2
CCOC(=O)C1CCN(C(=O)c2[nH]c3ccc(OC)cc3c2C)CC1 | 48.3 (≈ 140 µM)
Cc1ccc2c(c1)N(CC(=O)Nc1nccs1)C(=O)CO2 | 1.3 (≈ 4.29 µM)

SMILES | solubility kinetic [µg/mL]
CCN(CC)C(=O)COCc1cc(-c2ccc3c(c2)OCO3)on1 | > 49.9
CCOC(=O)COc1nc(-c2ccccc2)cc(-c2ccco2)c1C#N | < 0.4
C=CCNC(=O)/C(=C\c1ccco1)NC(=O)c1ccco1 | > 42.9
Cc1ccc(S(=O)(=O)NCC(=O)OCc2ccccc2)cc1 | 40.3 (≈ 126 µM)
CCOC(=O)/C=C/C(=O)OCC(=O)Nc1ccc(Cl)cc1Cl | 8.8 (≈ 25.4 µM)
O=C(NCCN1CCOCC1)c1ccc(Cl)cc1O | > 42.7
Cc1ccc2nc(Cn3cc(C(F)(F)F)ccc3=O)cc(=O)n2c1 | 47.4 (≈ 141 µM)
Cc1cccc(C)c1NC(=O)CN1CCCC1 | 31.3 (≈ 135 µM)
O=C(NCC(c1ccco1)N1CCCC1)c1cc(S(=O)(=O)N2CCCCC2)ccc1Cl (stereo unspecified) | > 69.9
Cc1cc(O)c(CN2CC=C(c3ccccc3)CC2)cc1C(C)C | 1.2 (≈ 3.73 µM)
Cc1ccc(-n2c(C)nn(CC#N)c2=O)cc1 | > 34.2
CCC1(C)Cc2ccccc2-c2nc(NCCCO)[nH]c(=O)c21 (stereo unspecified) | 44 (≈ 140 µM)
CCN(CC)CC(=O)N1c2ccccc2Sc2ccccc21 | > 46.9
Cc1cc(C)cc(N(C(C)C(=O)N2CCCC2)S(C)(=O)=O)c1 (stereo unspecified) | > 48.7
O=C1CC(c2ccccc2)=Nc2ccc(Br)cc2N1 | 0.9 (≈ 2.86 µM)
COc1ccc(NC(=O)O/N=C/c2ccccc2)cc1 | 5 (≈ 18.5 µM)
CC1CCC(NC(=O)CN(C)S(=O)(=O)c2cnc[nH]2)CC1 (stereo unspecified) | > 47.2
O=CN1CCN(S(=O)(=O)c2ccc(Cl)c(C(=O)O)c2)CC1 | > 49.9
Cc1cc(C(=O)Nc2ccc(Br)cc2)c2ccccc2n1 | 0.5 (≈ 1.47 µM)
COc1ccc(NC(=O)C2C3CCC(O3)C2C(=O)O)c(OC)c1 (stereo unspecified) | > 48.2
COc1cccc(NC(=O)NC2CCCCCCC2)c1 | 5.2 (≈ 18.8 µM)
